Laboratory results published in PMC6469167, “Cholecystokinin-2 Receptor Targeting with Novel C-terminally Stabilized HYNIC-Minigastrin Analogs Radiolabeled with Technetium-99m” (Pharmaceuticals, 2019).

Experiments:
physchem = type: physicochemical
Experimental: The resistance against degradation of [^99mTc]Tc-HYNIC-MGS5 and [^99mTc]Tc-HYNIC-MGS11 (1000 pmol/mL, n = 2) in human serum was studied for up to 24 h. Furthermore, the radiopeptides were incubated in PBS (1000 pmol/mL, n = 1). At each time point of 1, 2, 4 and 24 h after incubation the intact radiopeptide was assessed by analytical HPLC. Serum samples were precipitated with ACN and centrifuged to collect the supernatant and diluted with water prior to radio-HPLC. […] From each phase a 75 µL sample was taken, the radioactivity measured in a 2480 Wizard^2 automatic gamma-counter (PerkinElmer Life Sciences and Analytical Sciences, Wallac Oy, Turku, Finland) and the distribution of the radiopeptides calculated. The protein binding in human serum (500 pmol/mL, n = 2) was assessed by Sephadex G-50 size-exclusion chromatography (GE Healthcare Illustra, Little Chalfont, UK) for up to 24 h.

[1] = system: A431-CCK2R and A431-mock tumor-xenografts; parameters: species or system athymic BALB/c nude mice; details: mouse, in vivo
Experimental: Biodistribution studies evaluating the tumor uptake of [^99mTc]Tc-HYNIC-MGS5 and [^99mTc]Tc-HYNIC-MGS11 were performed in 7 week-old female athymic BALB/c nude mice (Charles River, Sulzfeld, Germany). To induce tumor-xenografts, mice were injected subcutaneously with 2 × 10^6 A431-CCK2R (right flank) and A431-mock cells (left flank). The tumor-xenografts were allowed to grow for 11–12 days reaching medium tumor weights of ~0.2 g. Mice were randomly divided into groups of four and injected intravenously via a lateral tail vein with 0.3 MBq of the ^99mTc-labeled HYNIC-analogs (corresponding to ~15 pmol total peptide). The groups of animals were sacrificed at 1 h and 4 h p.i., tumors and other tissues (blood, lung, heart, muscle, bone, spleen, intestine, liver, kidney, stomach and pancreas) were removed, weighed, and the radioactivity measured together with a standard in the gamma counter. Results were expressed as percentage of injected activity per gram tissue (% IA/g) and tumor-to-organ activity ratios were calculated for selected tissues. […] The radioactivity in selected organs (stomach, pancreas, liver, kidneys, A431-CCK2R and A431-mock xenograft) was additionally visualized by autoradiography using a phosphorimager (Cyclone Plus, PerkinElmer Life Sciences and Analytical Sciences, Downers Grove, Il, USA). […]

logD (physchem) | tumor-to-kidney ratio [1] | Structure (SMILES)
-2.91 ± 0.06 | 2.4–3.3 | CCCC[C@@H](C(=O)N[C@@H](CC(=O)O)C(=O)N[C@@H](Cc1cccc2ccccc12)C(N)=O)N(C)C(=O)[C@H](Cc1c[nH]c2ccccc12)NC(=O)CNC(=O)[C@H](Cc1ccc(O)cc1)NC(=O)[C@H](C)NC(=O)[C@@H](CCC(=O)O)NC(=O)c1ccc(NN)nc1 [[^99mTc]Tc-HYNIC-MGS5, metal not drawn]
-2.84 ± 0.08 | 2.0–2.6 | CCCC[C@@H](C(=O)N[C@@H](CC(=O)O)C(=O)N(C)[C@@H](Cc1cccc2ccccc12)C(N)=O)N(C)C(=O)[C@H](Cc1c[nH]c2ccccc12)NC(=O)CNC(=O)[C@H](Cc1ccc(O)cc1)NC(=O)[C@H](C)NC(=O)[C@@H](CCC(=O)O)NC(=O)c1ccc(NN)nc1 [[^99mTc]Tc-HYNIC-MGS11, metal not drawn]
